Data taken from patent publication US6713056B1, “Combined preparation for the treatment of neoplasic diseases or of infectious diseases” (I.D.M. Immuno-Designed Molecules, priority 1998, dated 2004).

Key:
[1] = tested on: human carcinoma solid tumors; test: Nude mice with human carcinoma solid tumors: cytotoxic drugs, then activated human macrophages, then the same drugs; format: in vivo; details: after macrophage injection; drugs used alone or in combination
Text: 2) Nude mice inoculated with human carcinoma solid tumors are initially treated with cytotoxic drugs (Adriamycin, Etretinate, Taxotere), used alone or in combination.

[2] = tested on: 16R-OV1/DDP human ovary cancer cell line; test: Survival of cisplatin-resistant ovary cancer cells grown with MAK for 24 hours, then with cisplatin (FIG. 3); format: cell-based; details: cisplatin alone at maximal dose 10^-3 M
Procedure: The percentage of tumor cell survival is measured according to the method described in “Feasibility of drug screening with panels of human tumor cell lines using a microculture tetrazolium assay” (Alley M. C., Scudiero D. A., Monks A., et al.; Cancer Res., 1988, 48: 489-501), and is plotted against the dose of cisplatin (abscissa) in the test tube (molar concentration).
FIG. 3 represents the percentage of cellular survival as a function of cisplatin concentration (M).
The curve with hollow circles corresponds to the use of cisplatin alone.
The plain curve corresponds to the use of MAK alone.
The curve with black squares corresponds to the use of the combination of MAK followed by cisplatin.
The curve with hollow triangles corresponds to the theoretical additive curve of a treatment with MAK alone and a treatment with cisplatin alone.
16R-OV1/DDP human ovary cancer cell line was rendered resistant to cisplatinum by continuous exposure to increasing concentrations of cisplatin (Fajac A., et al. Cisplatin induced apoptosis and p.53 gene status in a cisplatin resistant human ovarian carcinoma cell line. Int. J. Cancer 68, 67-74, 1996). The cells are grown at 37° C., 5% CO2 in RPMI 1640 medium in the presence of activated human macrophages (MAK) during 24 hours and then with cisplatin at increasing concentrations. […]

solid carcinoma = test: Mice bearing solid carcinoma: apoptosis-inducing drug plus monocyte derived cells; format: in vivo, C57B16 mice; details: drug intraperitoneally, 24 h later 0.1 million monocyte derived cells in tumor periphery; seen only after combined treatment
Procedure: 7) C57B16 mice bearing solid carcinoma are injected intraperitonealy with a drug inducing apoptosis (1 mg mitomycin C or 0.1 mg sodium butyrate). After 24 h, mice are injected with 0.1 million monocyte derived cells in tumor periphery. […] In another protocol, carcinoma cells are treated in vitro with 0.01 mM sodium butyrate, and then submitted to phagocytosis by murine monocyte derived cells.

SMILES | effect of second treatment with the same cytotoxic drugs (subcutaneous tumor size) [1] | tumor outcome after combined treatment (solid carcinoma) | also measured
COc1cccc2c1C(=O)c1c(O)c3c(c(O)c1C2=O)C[C@@](O)(C(=O)CO)C[C@@H]3O[C@H]1C[C@H](N)[C@H](O)[C@H](C)O1 [Adriamycin] | further antitumoral effect |  | 
N.N.[Cl][Pt][Cl] [Cisplatin, cisplatin] |  |  | inhibition of survival [2]: 35%
CCOC(=O)/C=C(C)/C=C/C=C(C)/C=C/c1c(C)cc(OC)c(C)c1C [Etretinate] | further antitumoral effect |  | 
CC(=O)O[C@@]12CO[C@@H]1C[C@H](O)[C@@]1(C)C(=O)[C@H](O)C3=C(C)[C@@H](OC(=O)[C@H](O)[C@@H](NC(=O)OC(C)(C)C)c4ccccc4)C[C@@](O)([C@@H](OC(=O)c4ccccc4)[C@H]21)C3(C)C [Taxotere] | further antitumoral effect |  | 
CO[C@@]12[C@H](COC(N)=O)C3=C(C(=O)C(C)=C(N)C3=O)N1C[C@@H]1N[C@@H]12 [mitomycin C] |  | Tumor regression and protection against further tumor challenge | 
CCCC(=O)[O-].[Na+] [sodium butyrate] |  | Tumor regression and protection against further tumor challenge | 
